This is an account of results in patent US7476671B2, “2-amino-imidazo[4,5-d]pyridazin-4-ones, their preparation and their use as pharmaceutical compositions” (Boehringer Ingelheim International GmbH, priority 2004, dated 2009).

A short description of data set [1]: Tolerability after oral administration. Format: in vivo. The note with it: oral administration of 10 mg/kg.
In a further data set the target is T1, DPP-IV (Homo sapiens, UniProt P27487).
T1 construct: an extract of the human colon carcinoma cell line Caco-2 is used as the DPP IV source; endogenous in cells; host or cells: Caco-2 (human colon carcinoma), differentiated to induce DPP-IV expression; Nonidet-P40 solubilised extract
T1 sequence (P27487 whole entry): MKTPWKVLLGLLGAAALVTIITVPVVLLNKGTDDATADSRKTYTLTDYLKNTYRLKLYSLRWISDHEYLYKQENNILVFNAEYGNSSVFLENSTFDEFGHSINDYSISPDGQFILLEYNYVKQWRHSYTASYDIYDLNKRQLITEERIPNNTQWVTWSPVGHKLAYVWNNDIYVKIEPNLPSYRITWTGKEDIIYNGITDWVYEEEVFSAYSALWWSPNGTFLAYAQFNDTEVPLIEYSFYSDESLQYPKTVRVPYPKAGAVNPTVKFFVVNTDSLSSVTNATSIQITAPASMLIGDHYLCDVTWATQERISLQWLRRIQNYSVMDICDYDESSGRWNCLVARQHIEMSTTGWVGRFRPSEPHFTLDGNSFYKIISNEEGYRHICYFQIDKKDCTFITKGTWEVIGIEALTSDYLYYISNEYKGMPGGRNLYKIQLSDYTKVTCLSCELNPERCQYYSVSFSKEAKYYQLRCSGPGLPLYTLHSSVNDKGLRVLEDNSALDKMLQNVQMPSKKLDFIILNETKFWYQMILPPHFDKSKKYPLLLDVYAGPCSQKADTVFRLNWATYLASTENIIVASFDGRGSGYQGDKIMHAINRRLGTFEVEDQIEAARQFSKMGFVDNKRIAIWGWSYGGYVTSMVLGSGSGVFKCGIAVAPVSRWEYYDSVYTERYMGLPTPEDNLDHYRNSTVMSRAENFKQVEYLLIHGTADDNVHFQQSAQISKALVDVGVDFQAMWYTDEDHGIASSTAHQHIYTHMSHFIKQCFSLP
Kind of data set: DPP-IV assay with extract of the human colon carcinoma cell line Caco-2 as DPP IV source, AFC substrate, fluorescence. It counts as biochemical. The following applies: solubilised Caco-2 protein, substrate 100 μM, 60 minutes at ambient temperature, 11-point curves; read-out: DPP IV inhibition IC50. The protocol:
The differentiation of the cells in order to induce the DPP-IV expression was carried out in accordance with the description by Reiher et al. in an article entitled “Increased expression of intestinal cell line Caco-2”, which appeared in Proc. Natl. Acad. Sci. Vol. 90, pp. 5757-5761 (1993).
The cell extract was obtained from cells solubilised in a buffer (10 mM Tris HCl, 0.15 M NaCl, 0.04 t.i.u. aprotinin, 0.5% Nonidet-P40, pH 8.0) by centrifugation at 35,000 g for 30 minutes at 4° C. (to remove cell debris).
The DPP-IV assay was carried out as follows:
50 μl of substrate solution (AFC; AFC is amido-4-trifluoromethylcoumarin), final concentration 100 μM, were placed in black microtitre plates. 20 μl of assay buffer (final concentrations 50 mM Tris HCl, pH 7.8, 50 mM NaCl, 1% DMSO) was pipetted in. The reaction was started by the addition of 30 μl of solubilised Caco-2 protein (final concentration 0.14 μg of protein per well). The test substances under investigation were typically added prediluted to 20 μl, while the volume of assay buffer was then reduced accordingly. The reaction was carried out at ambient temperature, the incubation period was 60 minutes. Then the fluorescence was measured in a Victor 1420 Multilabel Counter, with the excitation wavelength at 405 nm and the emission wavelength at 535 nm. Dummy values (corresponding to 0% activity) were obtained in mixtures with no Caco-2 protein (volume replaced by assay buffer), control values (corresponding to 100% activity) were obtained in mixtures without any added substance. The potencies of the test substances in question, expressed as IC50 values, were calculated from dosage/activity curves consisting of 11 measured points in each case.

SMILES strings stand for the structures.

Turning to `CC#CCn1c(N(C)CCN)nc2cnn(Cc3nc(C)c4ccccc4n3)c(=O)c21` [Example 1, 2-[N-(2-aminoethyl)-N-methyl-amino]-3-(2-butyn-1-yl)-5-[(4-methyl-quinazolin-2-yl)methyl]-3,5-dihydro-imidazo[4,5-d]pyridazin-4-one], the “toxic side effects / tolerability” value in data set [1] is given as “no toxic side effects”. In addition, the IC50 (commonly the midpoint of a concentration-inhibition curve) at DPP-IV was 1 nM. With `CC#CCn1c(N(C)CCN)nc2ccn(Cc3nc(C)cc4ccccc34)c(=O)c21` [1(2), 2-[N-(2-aminoethyl)-N-methyl-amino]-3-(2-butyn-1-yl)-5-[(3-methyl-isoquinolin-1-yl)methyl]-3,5-dihydro-imidazo[4,5-c]pyridin-4-one], the IC50 at DPP-IV was 34 nM. In the case of `CC#CCn1c(N(C)CC(C)(C)N)nc2cnn(Cc3ccccc3C#N)c(=O)c21` [2(1), 2-[N-(2-amino-2-methyl-propyl)-N-methyl-amino]-3-(2-butyn-1-yl)-5-(2-cyanophenyl-methyl)-3,5-dihydro-imidazo[4,5-d]pyridazin-4-one], the half-maximal inhibitory concentration (IC50) at DPP-IV is 336 nM. `CC#CCn1c(N(C)CCN)nc2cnn(Cc3nc(C)cc4ccccc34)c(=O)c21` [1(1), 2-[N-(2-aminoethyl)-N-methyl-amino]-3-(2-butyn-1-yl)-5-[(3-methyl-isoquinolin-1-yl)methyl]-3,5-dihydro-imidazo[4,5-d]pyridazin-4-one]: the 50% inhibitory concentration (IC50) on DPP-IV amounted to 10 nM. Regarding `CC#CCn1c(N(C)C[C@H](C)N)nc2cnn(Cc3ccccc3C#N)c(=O)c21` [Example 2, (S)-2-[N-(2-amino-propyl)-N-methyl-amino]-3-(2-butyn-1-yl)-5-(2-cyanophenylmethyl)-3,5-dihydro-imidazo[4,5-d]pyridazin-4-one], the IC50 at DPP-IV was 76 nM. `CC#CCn1c(N(C)C[C@H](C)N)nc2cnn(Cc3nc(C)c4ccccc4n3)c(=O)c21` [Example 3, (S)-2-[N-(2-aminopropyl)-N-methyl-amino]-3-(2-butyn-1-yl)-5-[(4-methyl-quinazolin-2-yl)methyl]-3,5-dihydro-imidazo[4,5-d]pyridazin-4-one]: on DPP-IV, the IC50 stood at 2 nM.
